# Experimental data as given in the supplement of paper PMC10307832.
# Columns and labels:
# Test in all cases: relative viability (nuclei count vs DMSO), 5 days (fraction); higher = more cells survive
# Linifanib + Trametinib = compound: Cc1ccc(F)c(NC(=O)Nc2ccc(-c3cccc4[nH]nc(N)c34)cc2)c1 [Linifanib] + CC(=O)Nc1cccc(-n2c(=O)n(C3CC3)c(=O)c3c(Nc4ccc(I)cc4F)n(C)c(=O)c(C)c32)c1 [Trametinib] (partner 0.02 µM)
# Outline: (§1)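 After 5 days of treatment, lung cancer cells in 1536-well plates were fixed and stained in a single step (final 0.05% Triton X-100, 1% formaldehyde, 1 ug/ml Hoechst) and their nuclei counted on 4× images. Treatment had been applied by pin tool the day after seeding as one drug alone or as a fixed anchor-drug dose with five library-drug doses (not always all listed) in √10 steps. Relative viability is the nuclei count of treated wells divided by that of vehicle wells, and values are medians of duplicate plates.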
# Linifanib + Linsitinib = compound: Cc1ccc(F)c(NC(=O)Nc2ccc(-c3cccc4[nH]nc(N)c34)cc2)c1 [Linifanib] + C[C@]1(O)C[C@@H](c2nc(-c3ccc4ccc(-c5ccccc5)nc4c3)c3c(N)nccn32)C1 [Linsitinib] (partner 1 µM)
# Outline: as §1
# Linifanib + Tozasertib = compound: Cc1ccc(F)c(NC(=O)Nc2ccc(-c3cccc4[nH]nc(N)c34)cc2)c1 [Linifanib] + Cc1cc(Nc2cc(N3CCN(C)CC3)nc(Sc3ccc(NC(=O)C4CC4)cc3)n2)n[nH]1 [Tozasertib] (partner 0.1 µM)
# Outline: as §1
# Linifanib + Alpelisib = compound: Cc1ccc(F)c(NC(=O)Nc2ccc(-c3cccc4[nH]nc(N)c34)cc2)c1 [Linifanib] + Cc1nc(NC(=O)N2CCC[C@H]2C(N)=O)sc1-c1ccnc(C(C)(C)C(F)(F)F)c1 [Alpelisib] (partner 2 µM)
# Outline: as §1
# Linifanib + Phenformin = compound: Cc1ccc(F)c(NC(=O)Nc2ccc(-c3cccc4[nH]nc(N)c34)cc2)c1 [Linifanib] + N=C(N)NC(=N)NCCc1ccccc1 [Phenformin] (partner 250 µM)
# Outline: as §1
# Linifanib + Olaparib = compound: Cc1ccc(F)c(NC(=O)Nc2ccc(-c3cccc4[nH]nc(N)c34)cc2)c1 [Linifanib] + O=C(c1cc(Cc2n[nH]c(=O)c3ccccc23)ccc1F)N1CCN(C(=O)C2CC2)CC1 [Olaparib] (partner 8 µM)
# Outline: as §1
Cell Line,relative viability (Linifanib + Trametinib; first compound 0.03162 µM),relative viability (Linifanib + Trametinib; first compound 0.1 µM),relative viability (Linifanib + Trametinib; first compound 0.3162 µM),relative viability (Linifanib + Linsitinib; first compound 0.03162 µM),relative viability (Linifanib + Linsitinib; first compound 0.1 µM),relative viability (Linifanib + Linsitinib; first compound 0.3162 µM),relative viability (Linifanib + Tozasertib; first compound 0.03162 µM),relative viability (Linifanib + Tozasertib; first compound 0.1 µM),relative viability (Linifanib + Tozasertib; first compound 0.3162 µM),relative viability (Linifanib + Alpelisib; first compound 0.03162 µM),relative viability (Linifanib + Alpelisib; first compound 0.1 µM),relative viability (Linifanib + Alpelisib; first compound 0.3162 µM),relative viability (Linifanib + Phenformin; first compound 0.03162 µM),relative viability (Linifanib + Phenformin; first compound 0.1 µM),relative viability (Linifanib + Phenformin; first compound 0.3162 µM),relative viability (Linifanib + Olaparib; first compound 0.03162 µM),relative viability (Linifanib + Olaparib; first compound 0.1 µM),relative viability (Linifanib + Olaparib; first compound 0.3162 µM)
NCI-H460,0.178,0.168,0.146,0.714,1.05,0.773,0.139,0.436,0.475,0.432,0.602,0.469,0.546,0.542,0.489,0.539,0.464,0.471
201T,0.746,0.736,0.758,1.01,1.02,1.05,0.971,0.965,0.942,1,1.06,0.978,0.503,0.473,0.422,0.839,0.825,0.842
HCC-78,0.657,0.692,0.805,0.528,0.526,0.497,0.493,0.519,0.371,0.339,0.357,0.363,0.675,0.761,0.686,0.946,0.77,0.943
NCI-H596,0.813,0.894,0.749,1.08,0.993,1.06,0.798,0.815,0.9,0.544,0.517,0.431,0.707,0.734,0.899,0.633,0.615,0.724
HCC-366,0.4,0.391,0.399,0.676,0.735,0.5,0.0836,0.0997,0.105,0.533,0.664,0.357,0.575,0.62,0.635,0.337,0.458,0.323
NCI-H520,0.673,0.803,0.731,1.07,1,0.811,0.382,0.456,0.418,0.789,0.801,0.794,0.493,0.666,0.552,0.286,0.32,0.36
RERF-LC-KJ,0.871,0.87,0.877,0.888,0.907,0.827,0.46,0.531,0.578,0.888,1.04,0.75,0.404,0.479,0.439,0.875,1.08,0.892
NCI-H1915,0.279,0.339,0.297,1.12,1.09,1.08,0.436,0.469,0.399,1.08,1.08,1.06,0.368,0.378,0.352,0.264,0.26,0.255
NCI-H3122,0.273,0.251,0.19,0.997,0.986,1.04,0.456,0.437,0.371,0.761,0.783,0.786,0.381,0.399,0.362,0.641,0.637,0.61
NCI-H661,0.577,0.591,0.55,0.505,0.676,0.467,0.35,0.35,0.36,0.647,0.787,0.515,0.288,0.281,0.313,0.771,0.783,0.7
CAL-12T,0.338,0.463,0.357,0.905,0.722,0.755,0.333,0.348,0.355,1.27,1.3,1.28,0.636,0.617,0.458,0.642,0.703,0.702
NCI-H647,0.567,0.526,0.588,1.13,1.06,1.07,0.188,0.325,0.352,1.07,1.21,0.963,0.654,0.441,0.522,0.678,0.68,0.54
HOP-62,0.412,0.439,0.355,1.08,0.896,0.876,0.36,0.401,0.35,1.38,1.03,1.07,0.736,0.689,0.653,0.546,0.243,0.534
NCI-H2228,0.511,0.719,0.587,0.648,0.705,0.5,0.206,0.233,0.295,0.821,0.827,0.843,0.242,0.296,0.301,0.58,1.08,0.621
NCI-H441,0.457,0.518,0.409,0.528,0.731,0.547,0.48,0.654,0.678,0.649,1.05,0.735,0.854,0.93,0.899,0.673,0.5,0.433
COR-L23,0.666,0.689,0.578,0.933,1.01,0.815,0.181,0.228,0.141,0.81,0.957,0.732,0.464,0.431,0.399,0.337,0.384,0.302
LXF-289,0.749,0.695,0.624,0.989,1.02,0.972,0.185,0.173,0.172,1.11,1.04,1.02,0.558,0.536,0.496,1.13,1.2,0.898
